# Paper PMC7557582, “Broad-Spectrum Antimicrobial Activity and Improved Stability of a D-Amino Acid Enantiomer of DMPC-10A, the Designed Derivative of Dermaseptin Truncates” (Antibiotics, 2020)
# Non-standard residues stand in square brackets, D forms with d. Residues, ends and D or L forms follow the SMILES beside them. Cha = N[C@@H](CC1CCCCC1)C(=O)O
# How the values were obtained:
# S. aureus (NCTC 10788) [1] = type: cell-based, Staphylococcus aureus; conditions: NCTC 10788, pH 7.4
# Method: (§3) Gram-positive bacteria Staphylococcus aureus (NCTC 10788) and Enterococcus faecalis (NCTC 12697) and Gram-negative bacteria Escherichia coli (NCTC 10418), Pseudomonas aeruginosa (ATCC 27853), and Klebsiella pneumoniae (ATCC 43816) were tested. […] All the bacterial strains were inoculated in Mueller Hinton broth (MHB), pH 7.4 (Oxiod, Basingstoke, UK) at 37 °C. Then, the log-phase bacteria were mixed with the peptide at the concentrations from 512 to 1 µM in two-fold dilution, in a 96 well-plate. The wells contained sterilized MHB and bacteria cultures were employed as a blank and growth control, respectively.
# MRSA (NCTC 12493) = type: cell-based, methicillin-resistant S. aureus; conditions: NCTC 12493, pH 7.4
# Method: as §3
# E. faecalis (NCTC 12697) = type: cell-based, Enterococcus faecalis; conditions: NCTC 12697, pH 7.4
# Method: as §3
# E. coli (NCTC 10418) [2] = type: cell-based, Escherichia coli; conditions: NCTC 10418, pH 7.4
# Method: as §3
# [3] = test system: K. pneumoniae (ATCC 43816); type: cell-based, Klebsiella pneumoniae; conditions: ATCC 43816, pH 7.4
# Method: as §3
# [4] = test system: K. pneumoniae (ATCC BAA 1705); type: cell-based, Klebsiella pneumoniae; conditions: ATCC BAA 1705, pH 7.4
# Method: as §3
# [5] = test system: K. pneumoniae (ATCC BAA 2342); type: cell-based, Klebsiella pneumoniae; conditions: ATCC BAA 2342, pH 7.4
# Method: as §3
# [6] = test system: P. aeruginosa (ATCC 27853); type: cell-based, Pseudomonas aeruginosa; conditions: ATCC 27853, pH 7.4
# Method: as §3
# S. aureus (NCTC 10788) [7] = type: cell-based, Staphylococcus aureus
# Method: (§1) Furthermore, the antimicrobial activity in the presence of MgCl2, CaCl2, NaCl and 10% fetal bovine serum (FBS) was investigated. In detail, 2 and 5 mM of MgCl2 and CaCl2, and 150 and 375 mM NaCl, were applied, respectively. The supplements were added into the medium that was used for diluting the bacteria suspension. Then, the diluted bacteria culture was mixed with the peptide stock solution in the 96-well plate, as mentioned above. The assay was performed three times and each assay contained 5 replicates.
# E. coli (NCTC 10418) [8] = type: cell-based, Escherichia coli
# Method: as §1
# trypsin = target: T1, trypsin (Bos taurus, UniProt P00760); experiment: Enzyme stability assay, trypsin; type: in vitro ADME; conditions: peptide in PBS, peptide:trypsin 100:1 (m/m), time points 0-120 min, stopped with 10% TFA, RP-HPLC peak area, three replicates
# T1 construct: gene PRSS1
# T1 sequence (P00760 24-246): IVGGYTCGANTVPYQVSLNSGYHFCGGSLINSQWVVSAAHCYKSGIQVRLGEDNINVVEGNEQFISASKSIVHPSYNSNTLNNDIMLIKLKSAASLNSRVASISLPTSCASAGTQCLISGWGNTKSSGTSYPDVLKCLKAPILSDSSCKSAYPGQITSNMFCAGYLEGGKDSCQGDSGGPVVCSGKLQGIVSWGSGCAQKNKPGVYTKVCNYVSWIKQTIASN
# Method: (§2) The peptides were dissolved in phosphate-buffered saline (PBS) and mixed with the respective enzyme (trypsin and chymotrypsin) with a ratio of 100:1 (m/m). Then, 135 µl of the reaction solution was transferred into a new vial. The hydrolysis reaction was immediately terminated by adding 15 µl of 10% TFA at the different time points (0, 5, 10, 20, 40, 60, 120 min). The mixture was then analyzed by reverse-phase HPLC and respective peak areas were calculated to obtain the residual amount of peptides at different times.
# chymotrypsin = chymotrypsin (Bos taurus, UniProt P00766); experiment: Enzyme stability assay, chymotrypsin; type: in vitro ADME; conditions: peptide in PBS, peptide:chymotrypsin 100:1 (m/m), time points 0-120 min, stopped with 10% TFA, RP-HPLC peak area, three replicates
# Method: as §2
# [9] = cited from earlier work
# Excerpt: Dermaseptins are a class of cationic AMPs that were discovered from the skin of Phyllomedusa frogs, usually consisting of 28–34 amino acids. They can form an amphipathic α-helix in amphiphilic environments, which makes them bind easily to bacterial lipid bilayers. Dermaseptins contain a conserved Trp residue in position three and a unique internal motif, -AAA/GKAAL/G/NA-, and exert broad-spectrum antimicrobial activity against a range of ESKAPE pathogens. […] Compared with the other AMPs applied using the same model, such as Japonicin-2LF [53], DMPC-10B exerted relatively stronger efficacy. Japonicin-2LF prevented around 50% mortality at 50 mg/kg in treatment of MRSA infection, but DMPC-10B achieved similar efficacy at 20 mg/kg.
smiles,measurement,setting,value
CC(C)C[C@H](NC(=O)[C@H](C)N)C(=O)N[C@@H](Cc1c[nH]c2ccccc12)C(=O)N[C@@H](CCCCN)C(=O)N[C@@H](CCCCN)C(=O)N[C@@H](CC(C)C)C(=O)N[C@@H](CC(C)C)C(=O)N[C@@H](CCCCN)C(=O)N[C@@H](CCCCN)C(=O)N[C@@H](CC1CCCCC1)C(N)=O [DMPC-10A] (H-ALWKKLLKK[Cha]-NH2),MBC,S. aureus (NCTC 10788) [1],8 µM
same,MIC,S. aureus (NCTC 10788) [1],4 µM
same,MBC,MRSA (NCTC 12493),16 µM
same,MIC,MRSA (NCTC 12493),8 µM
same,MBC,E. faecalis (NCTC 12697),64 µM
same,MIC,E. faecalis (NCTC 12697),64 µM
same,MBC,E. coli (NCTC 10418) [2],8 µM
same,MIC,E. coli (NCTC 10418) [2],8 µM
same,MBC,[3],64 µM
same,MIC,[3],4 µM
same,MBC,[4],32 µM
same,MIC,[4],32 µM
same,MBC,[5],16 µM
same,MIC,[5],16 µM
same,MBC,[6],4 µM
same,MIC,[6],4 µM
same,MIC with CaCl2 5 mM,S. aureus (NCTC 10788) [7],64 µM
same,MIC with FBS 10%,S. aureus (NCTC 10788) [7],16 µM
same,MIC with MgCl2 5 mM,S. aureus (NCTC 10788) [7],64 µM
same,MIC with NaCl 150 mM,S. aureus (NCTC 10788) [7],32 µM
same,MIC with NaCl 375 mM,S. aureus (NCTC 10788) [7],64 µM
same,"MIC, no additive",S. aureus (NCTC 10788) [7],4 µM
same,MIC with CaCl2 5 mM,E. coli (NCTC 10418) [8],64 µM
same,MIC with FBS 10%,E. coli (NCTC 10418) [8],16 µM
same,MIC with MgCl2 5 mM,E. coli (NCTC 10418) [8],64 µM
same,MIC with NaCl 150 mM,E. coli (NCTC 10418) [8],16 µM
same,MIC with NaCl 375 mM,E. coli (NCTC 10418) [8],32 µM
same,"MIC, no additive",E. coli (NCTC 10418) [8],8 µM
same,time in which trypsin completely cleaved the peptide,trypsin,10 min
same,time in which chymotrypsin cleaved the peptide,chymotrypsin,40 min
same,hemolytic effect,[9],considerable hemolytic effect
